Results as given in patent publication US20170334899A1, “AMINO-SUBSTITUTED ISOTHIAZOLES” (Bayer Pharma Aktiengesellschaft, priority 2014, published 2017).
Values joined by “and” are separate entries in the source; they are usually repeats but may differ in a detail not shown here. Identical values can stand only once.

Assays:
[1] = test system: human cervical tumor cell line HeLa (ATCC CCL-2); assay: SAC-Formation - Nocodazole-Induced Assay; type: cell-based; conditions: Homo sapiens, HeLa, 24 h, HeLa cells, nocodazole 0.1 μg/ml together with test compound, decrease of mitotic cells (phospho-histone H3 Ser10)
In short: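 Loss of phospho-histone H3 Ser10-positive cells, counted against Hoechst-stained nuclei by high-content imaging, marked mitotic breakthrough. Compounds (0.005–20 μM, 0.5% DMSO) were co-dosed with 0.1 μg/ml nocodazole onto HeLa cells for 24 h at 37 °C. Curves were fitted with a four-parameter Hill equation.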

[2] = biological target: T1, catalytic domain of human Bub1 (amino acids 704-1085) (Homo sapiens, UniProt O43683); assay: Bub1 kinase assay (TR-FRET); type: biochemical; conditions: 10 μM ATP, avg, read-out: Bub1 avg (IC50 [mol/l])
T1 construct: catalytic domain of human Bub1 (amino acids 704-1085); His6 (N); made in house; host or cells: insect cells (Hi5)
In short: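 Readout is the 665/620 nm TR-FRET ratio from anti-phosphoserine antibody, Eu-labelled anti-mouse IgG and streptavidin-XL665, scaled between no-enzyme and uninhibited controls. Reaction: 1 μM biotinylated peptide, 10 μM ATP, 60 min, 22 °C, after 15 min compound preincubation with His6-Bub1 (704-1085, insect-expressed, ~200 ng/ml).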

T1 sequence (O43683 704-1085): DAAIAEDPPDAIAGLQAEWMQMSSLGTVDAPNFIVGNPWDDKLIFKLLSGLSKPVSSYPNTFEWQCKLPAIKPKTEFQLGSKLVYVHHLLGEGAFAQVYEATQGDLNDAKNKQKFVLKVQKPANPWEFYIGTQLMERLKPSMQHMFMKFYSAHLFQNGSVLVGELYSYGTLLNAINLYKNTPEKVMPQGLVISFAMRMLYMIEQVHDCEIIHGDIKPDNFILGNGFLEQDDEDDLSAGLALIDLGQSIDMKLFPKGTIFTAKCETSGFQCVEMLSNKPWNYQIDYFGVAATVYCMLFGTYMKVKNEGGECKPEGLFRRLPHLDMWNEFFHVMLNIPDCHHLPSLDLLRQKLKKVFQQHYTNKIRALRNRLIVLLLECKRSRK

| IC50 [1] [nM] | IC50 [2] | SMILES |
| --- | --- | --- |
| 520 | > 20000 nM | Cc1nsc(Nc2cnc3ccccc3n2)c1C(=O)Nc1ccc(C(N)=O)c(F)c1 [Example 201, N-(4-carbamoyl-3-fluorophenyl)-3-methyl-5-(quinoxalin-2-ylamino)-1,2-thiazole-4-carboxamide] |
| 320 | > 20000 nM | Cc1nsc(Nc2ccc(C#N)cn2)c1C(=O)Nc1cccc(NC(=O)OC(C)(C)C)c1 [Example 179, tert-butyl {3-[({5-[(5-cyanopyridin-2-yl)amino]-3-methyl-1,2-thiazol-4-yl}carbonyl)amino]phenyl}carbamate] |
| 950 | > 20000 nM | Cc1nsc(Nc2ccc(C#N)cn2)c1C(=O)Nc1ccc(OCCC(=O)OC(C)(C)C)nc1 [Example 199, tert-butyl 3-({5-[({5-[(5-cyanopyridin-2-yl)amino]-3-methyl-1,2-thiazol-4-yl}carbonyl)amino]pyridin-2-yl}oxy)propanoate] |
| 6000 | > 20000 nM | CC(=O)Nc1cc(NC(=O)c2c(C)nsc2Nc2cnccn2)ccc1F [Example 205, N-(3-acetamido-4-fluorophenyl)-3-methyl-5-(pyrazin-2-ylamino)-1,2-thiazole-4-carboxamide] |
| 330 | > 20000 nM | Cc1nsc(Nc2ccc(C#N)cn2)c1C(=O)Nc1ccc(S(C)(=O)=O)cc1 [Example 246, 5-[(5-cyanopyridin-2-yl)amino]-3-methyl-N-[4-(methylsulfonyl)phenyl]-1,2-thiazole-4-carboxamide] |
| 2200 | 3800 nM | Cc1nsc(Nc2cnc3ccccc3n2)c1C(=O)Nc1ccc(C(=O)O)cc1 [Example 187, 4-({[3-methyl-5-(quinoxalin-2-ylamino)-1,2-thiazol-4-yl]carbonyl}amino)benzoic acid] |
| 2600 | > 20000 nM | Cc1nsc(Nc2cc(C#N)ccn2)c1C(=O)Nc1ccc(NC2CCCNC2)nc1 (centres unmarked) [Example 242, 5-[(4-cyanopyridin-2-yl)amino]-3-methyl-N-[6-(piperidin-3-ylamino)pyridin-3-yl]-1,2-thiazole-4-carboxamide] |
| 1500 | > 20000 nM | Cc1nsc(Nc2cc(C#N)ccn2)c1C(=O)Nc1cccc(NC(=O)C(C)(C)C)c1 [Example 183, 5-[(4-cyanopyridin-2-yl)amino]-N-{3-[(2,2-dimethylpropanoyl)amino]phenyl}-3-methyl-1,2-thiazole-4-carboxamide] |
| 88 | > 20000 nM | Cc1nsc(Nc2cnccn2)c1C(=O)Nc1ccc(C(=O)OC(C)(C)C)cc1 [Example 184, tert-butyl 4-({[3-methyl-5-(pyrazin-2-ylamino)-1,2-thiazol-4-yl]carbonyl}amino)benzoate] |
| 3200 | > 20000 nM | CNS(=O)(=O)c1ccc(NC(=O)c2c(C)nsc2Nc2cc(C#N)ccn2)cc1 [Example 210, 5-[(4-cyanopyridin-2-yl)amino]-3-methyl-N-[4-(methylsulfamoyl)phenyl]-1,2-thiazole-4-carboxamide] |
| 2000 | > 20000 nM | CNS(=O)(=O)c1ccc(NC(=O)c2c(C)nsc2Nc2cnc(C(F)(F)F)cn2)cc1 [Example 212, 3-methyl-N-[4-(methylsulfamoyl)phenyl]-5-{[5-(trifluoromethyl)pyrazin-2-yl]amino}-1,2-thiazole-4-carboxamide] |
| 1300 | > 20000 nM | Cc1nsc(Nc2ccc(C#N)cn2)c1C(=O)Nc1ccc(F)c(C(N)=O)c1 [Example 203, N-(3-carbamoyl-4-fluorophenyl)-5-[(5-cyanopyridin-2-yl)amino]-3-methyl-1,2-thiazole-4-carboxamide] |
| 470 | > 20000 nM | Cc1nsc(Nc2cncc(C(F)(F)F)n2)c1C(=O)Nc1ccc(C(=O)OC(C)(C)C)cc1 [Example 193, tert-butyl tert-butyl 4-{[(3-methyl-5-{[6-(trifluoromethyl)pyrazin-2-yl]amino}-1,2-thiazol-4-yl)carbonyl]amino}benzoate] |
| 660 | – | Cc1nsc(Nc2cnc(C(F)(F)F)cn2)c1C(=O)Nc1cccc(S(C)(=O)=O)c1 [Example 195, 3-methyl-N-[3-(methylsulfonyl)phenyl]-5-{[5-(trifluoromethyl)pyrazin-2-yl]amino}-1,2-thiazole-4-carboxamide] |
| 2200 | – | Cc1nsc(Nc2cc(C#N)ccn2)c1C(=O)Nc1cccc(C(=O)NC2CC2)c1 [Example 175, 5-[(4-cyanopyridin-2-yl)amino]-N-[3-(cyclopropylcarbamoyl)phenyl]-3-methyl-1,2-thiazole-4-carboxamide] |

Further lines, the molecule ahead of its results:

| SMILES | IC50 [1] [nM] | IC50 [2] |
| --- | --- | --- |
| Cc1nsc(Nc2cncc(C(F)(F)F)n2)c1C(=O)Nc1ccc(OC2CCCN(C(=O)OC(C)(C)C)C2)nc1 (centres unmarked) [Example 189, tert-butyl 3-[(5-{[(3-methyl-5-{[6-(trifluoromethyl)pyrazin-2-yl]amino}-1,2-thiazol-4-yl)carbonyl]amino}pyridin-2-yl)oxy]piperidine-1-carboxylate] | 150 | > 20000 nM |
| Cc1nsc(Nc2cnc(C(F)(F)F)cn2)c1C(=O)Nc1ccc(OCCN)c(F)c1 [Example 221, 3-N-[4-(2-aminoethoxy)-3-fluorophenyl]-3-methyl-5-{[5-(trifluoromethyl)pyrazin-2-yl]amino}-1,2-thiazole-4-carboxamide] | 92 | > 20000 nM |
| Cc1nsc(Nc2cncc(C(F)(F)F)n2)c1C(=O)Nc1ccc(OCCN)nc1 [Example 196, N-[6-(2-aminoethoxy)pyridin-3-yl]-3-methyl-5-{[6-(trifluoromethyl)pyrazin-2-yl]amino}-1,2-thiazole-4-carboxamide] | 1300 | > 20000 nM |
| CC(=O)N1CCC(Oc2ccc(NC(=O)c3c(C)nsc3Nc3cncc(C(F)(F)F)n3)cn2)CC1 [Example 17, N-{6-[(1-Acetylpiperidin-4-yl)oxy]pyridin-3-yl}-3-methyl-5-{[6-(trifluoromethyl)-pyrazin-2-yl]amino}-1,2-thiazole-4-carboxamide] | 210 | ≥ 20000 nM |
| Cc1nsc(Nc2cncc(C(F)(F)F)n2)c1C(=O)Nc1ccc(F)c(C(N)=O)c1 [Example 204, N-(3-carbamoyl-4-fluorophenyl)-3-methyl-5-{[6-(trifluoromethyl)pyrazin-2-yl]amino}-1,2-thiazole-4-carboxamide] | 490 | > 20000 nM and 16000 nM |
| Cc1nsc(Nc2cnc3ccccc3n2)c1C(=O)Nc1ccc(OC2CCN(CC(F)F)CC2)nc1 [Example 20, N-(6-{[1-(2,2-difluoroethyl)piperidin-4-yl]oxy}pyridin-3-yl)-3-methyl-5-(quinoxalin-2-ylamino)-1,2-thiazole-4-carboxamide] | 53 | ≥ 20000 nM |
| Cc1nsc(Nc2cnc(C(F)(F)F)cn2)c1C(=O)Nc1ccc(C(=O)NCCN2CCCC(F)C2)cc1 (centres unmarked) [Example 213, N-(4-{[2-(3-fluoropiperidin-1-yl)ethyl]carbamoyl}phenyl)-3-methyl-5-{[5-(trifluoromethyl)pyrazin-2-yl]amino}-1,2-thiazole-4-carboxamide] | 2700 | 17000 nM |
| Cc1cc(C)n(-c2ccccc2NC(=O)c2c(C)nsc2Nc2cnc3ccccc3n2)n1 [Example 243, N-[2-(3,5-dimethyl-1H-pyrazol-1-yl)phenyl]-3-methyl-5-(quinoxalin-2-ylamino)-1,2-thiazole-4-carboxamide] | 1800 | > 20000 nM |
| CCN(CC)CCNC(=O)c1cccc(NC(=O)c2c(C)nsc2Nc2cnccn2)c1 [Example 247, N-(3-{[2-(diethylamino)ethyl]carbamoyl}phenyl)-3-methyl-5-(pyrazin-2-ylamino)-1,2-thiazole-4-carboxamide] | 1200 | > 20000 nM |
| Cc1nsc(Nc2cncc(C(F)(F)F)n2)c1C(=O)Nc1ccc(OC2CCN(CCF)CC2)nc1 [Example 14, N-(6-{[1-(2-Fluoroethyl)piperidin-4-yl]oxy}pyridin-3-yl)-3-methyl-5-{[6-(trifluoro-methyl)pyrazin-2-yl]amino}-1,2-thiazole-4-carboxamide] | 940 | ≥ 20000 nM |
| Cc1nsc(Nc2cnc3ccccc3n2)c1C(=O)Nc1ccc(Nc2ccc(F)c(F)c2)nc1 [Example 245, N-{6-[(3,4-difluorophenyl)amino]pyridin-3-yl}-3-methyl-5-(quinoxalin-2-ylamino)-1,2-thiazole-4-carboxamide] | 1800 | > 20000 nM |
| Cc1nsc(Nc2cnc3ccccc3n2)c1C(=O)Nc1ccc(NCC2CCN(C(=O)OC(C)(C)C)CC2)nc1 [Example 238, tert-butyl 4-({[5-({[3-methyl-5-(quinoxalin-2-ylamino)-1,2-thiazol-4-yl]carbonyl}amino)pyridin-2-yl]amino}methyl)piperidine-1-carboxylate] | 3500 | > 20000 nM |
| Cc1nsc(Nc2cnc3ccccc3n2)c1C(=O)Nc1ccc(NC2CCCN(C(=O)OC(C)(C)C)C2)nc1 (centres unmarked) [Example 241, tert-butyl 3-{[5-({[3-methyl-5-(quinoxalin-2-ylamino)-1,2-thiazol-4-yl]carbonyl}amino)pyridin-2-yl]amino}piperidine-1-carboxylate] | 1400 | > 20000 nM |
| Cc1nsc(Nc2cncc(C(F)(F)F)n2)c1C(=O)Nc1ccc(OCC2CCN(C(=O)OC(C)(C)C)CC2)nc1 [Example 226, tert-butyl 4-{[(5-{[(3-methyl-5-{[6-(trifluoromethyl)pyrazin-2-yl]amino}-1,2-thiazol-4-yl)carbonyl]amino}pyridin-2-yl)oxy]methyl}piperidine-1-carboxylate] | 120 | > 20000 nM |
